From patent US9181265B2, “Substituted 2,3-dihydro-1H-benzo[a]pyrano[2,3-c]phenazines as anti-angiogenic and anti-cancer agents” (UNIVERSITE CATHOLIQUE DE LOUVAIN, priority 2010, dated 2015)
Like-named read-outs stand apart in the source and are kept apart here. Marks after values point to notes of the source that are not given here.

Columns and labels:
PC3 = assay: MTT test of overall cell growth, PC3 prostate cancer cells, normoxia or hypoxia; type: cell-based, human
Protocol: (§1) MTT tests were performed in order to rapidly, i.e. within 3 days, measure the effect of compounds of this invention on the overall cell growth. The test measured the number of metabolically active living cells that were able to transform the yellow product 3-(4,5-dimethylthiazol-2-yl)-2,5-diphenyl tetrazolium bromide (herein referred as MTT) into the blue product formazan dye by mitochondrial reduction. The amount of formazan obtained at the end of the experiment, measured by means of a spectrophotometer (Plate Reader Victor X4 Microplate reader (Perkin Elmer), is directly proportional to the number of living cells. Optical density determination thus enabled a quantitative measurement of the effect of the investigated compounds under control conditions (normoxia) as compared to the hypoxic conditions (0.1 or 1% O2) and/or untreated conditions.
(§2) Human umbilical vein endothelial cells (HUVEC) and six human cancer cell lines were used in the MTT tests. These cancer cell lines cover five histological cancer types including cervix (SiHa), breast (MCF-7 and MDA-MB231), prostate (PC3), glioma (U373), and colorectal (LoVo) cancers.
(§3) To perform the assay, cells were allowed to grow in 96-well microplates with a flat bottom following addition of an amount of 100 μl of cell suspension per well with 4,500 cells/well. Each cell line was seeded in its appropriate culture medium. HUVEC were cultured in a specific endothelial cell growth medium (ECACC, Sigma); SiHa cells in Glutamax-containing DMEM with 4.5 g/1 glucose (Invitrogen) supplemented with 10% Foetal Bovine Serum (PAA) and 1% penicillin+streptomycin mix (Invitrogen); MCF-7, MDA-MB-231, PC3, and LoVo cells in Glutamax-containing RPMI supplemented with 10% Foetal Bovine Serum (PAA) and 1% penicillin+streptomycin mix (Invitrogen) and U373 cells in Glutamax-containing DMEM (Invitrogen) with 5% Foetal Bovine Serum (PAA) and 1% penicillin+streptomycin mix (Invitrogen).
(§4) The detailed experimental procedure was the following: after a 24-hour period of incubation at 37° C., the culture medium was replaced by 100 μl of fresh medium in which the tested compound was previously dissolved, at the following concentrations: 10^−8 M, 5.10^−8, 10^−7, 5.10^−7, 10^−6, 5.10^−6, 10^−5, 5.10^−5 and 10^−[…]. Each experiment was performed in sestuplicates (6 times).
(§5) Cells were then incubated under normoxia in a Binder incubator (the O2 level corresponding to the concentration in the ambient air), or in a Ruskin hypoxia workstation under either 0.1% O2 (v/v) or 1% O2 (v/v). Under both conditions, the atmosphere was humidified and the CO2 concentration was fixed at 5 vol. %.
(§6) After 72 hours of incubation at 37° C. under normoxic or hypoxic conditions, with or without the compound to be tested, the medium was replaced by 100 μl of HBSS (without phenol red) containing MTT at a concentration of 0.5 or 1 mg/ml. The micro-wells were subsequently incubated during 3 hours and a half at 37° C. and centrifuged at 1300 rpm during 10 minutes. Medium was removed and formazan crystals formed were dissolved in 100 μl DMSO. The micro-wells were shaken for 5 minutes and read on a spectrophotometer at wavelengths of 570 nm (maximal formazan absorbance).
(§7) For each experimental condition, the mean optical density was calculated, allowing the determination of the percentage of living cells in comparison to the control.

LoVo = assay: MTT test of overall cell growth, LoVo colorectal cancer cells, normoxia or hypoxia; type: cell-based, human; details: for Selectivity: IC50 (normoxia)/IC50 (hypoxia 1% O2), if u.t.d., ratio of activity at 100 μM
Protocol: as §1, §2, §3, §4, §5, §6, §7

[1] = system: Human umbilical vein endothelial cells (HUVEC); assay: MTT test of overall cell growth, endothelial cells, normoxic or hypoxic conditions; type: cell-based; details: for Selectivity: if u.t.d., ratio of activity at 100 μM
Protocol: as §1, §2, §3, §4, §5, §6, §7

siHa = assay: MTT test of overall cell growth, SiHa cervix cancer cells, normoxia or hypoxia; type: cell-based, human; details: for Selectivity: IC50 (normoxia)/IC50 (hypoxia 1% O2), if u.t.d., ratio of activity at 100 μM
Protocol: as §1, §2, §3, §4, §5, §6, §7

MDA-MB-231 = assay: MTT test of overall cell growth, MDA-MB-231 breast cancer cells, normoxia or hypoxia; type: cell-based, human; details: for Selectivity: MDA-MB-231, IC50 (normoxia)/IC50 (hypoxia 1% O2), if u.t.d., ratio of activity at 100 μM
Protocol: as §1, §2, §3, §4, §5, §6, §7

MCF-7 = assay: MTT test of overall cell growth, MCF-7 breast cancer cells, normoxia or hypoxia; type: cell-based, human; details: for Selectivity: MCF-7, IC50 (normoxia)/IC50 (hypoxia 1% O2), if u.t.d., ratio of activity at 100 μM
Protocol: as §1, §2, §3, §4, §5, §6, §7

U373 = assay: MTT test of overall cell growth, U373 glioma cells, normoxia or hypoxia; type: cell-based, human; details: for Selectivity: U373, IC50 (normoxia)/IC50 (hypoxia 1% O2), if u.t.d., ratio of activity at 100 μM
Protocol: as §1, §2, §3, §4, §5, §6, §7

[2] = hypoxia 1% O2, 72 h, read-out: IC50 (μM) Hypoxia 1% O2
[3] = normoxia, 72 h, read-out: IC50 (μM) Normoxia
[4] = IC50 (normoxia)/IC50 (hypoxia 0.1%)
[5] = IC50 (normoxia)/IC50 (hypoxia 1%)

CC1CCC2C(C1)c1c(c3ccccc3c3nc4ccc(C(=O)NC(CO)Cc5ccccc5)cc4nc13)OC2(C)C (mixture of isomers) [Compound 17′]
IC50 (PC3; PC3, hypoxia 1% O2, 72 h, read-out: IC50 (μM) Hypoxia 1% O2): 11.6 µM
IC50 (PC3; PC3, normoxia, 72 h, read-out: IC50 (μM) Normoxia): 15.2 µM
Selectivity (PC3; PC3, IC50 (normoxia)/IC50 (hypoxia 1% O2), if u.t.d., ratio of activity at 100 μM): 1.31
Selectivity (LoVo): 1.64
IC50 (LoVo; [2]): 11.4 µM
IC50 (LoVo; [3]): 18.8 µM
Selectivity [1, 4]: 230
Selectivity [1, 5]: 16
IC50 ([1]; hypoxia 0.1% O2, 72 h, read-out: IC50 (μM) Hypoxia 0.1%): 0.07 µM
IC50 ([1]; hypoxia 1% O2, 72 h, read-out: IC50 (μM) Hypoxia 1%): 0.36 µM
IC50 ([1]; normoxia, 72 h, series compared with hypoxia 0.1%, read-out: IC50 (μM) Normoxia): 17 µM
IC50 ([1]; normoxia, 72 h, series compared with hypoxia 1%, read-out: IC50 (μM) Normoxia): 5.72 µM
Selectivity (siHa): 9.50
IC50 (siHa; [2]): 10.7 µM
IC50 (siHa; [3]): 102 µM
IC50 (MDA-MB-231; MDA-MB-231, hypoxia 1% O2, 72 h, read-out: IC50 (μM) Hypoxia 1% O2): 11.1 µM
IC50 (MDA-MB-231; MDA-MB-231, normoxia, 72 h, read-out: IC50 (μM) Normoxia): 59.9 µM
Selectivity (MDA-MB-231): 5.40
IC50 (MCF-7; MCF-7, hypoxia 1% O2, 72 h, read-out: IC50 (μM) Hypoxia 1% O2): 12.5 µM
IC50 (MCF-7; MCF-7, normoxia, 72 h, read-out: IC50 (μM) Normoxia): 17.2 µM
Selectivity (MCF-7): 1.37
IC50 (U373; U373, hypoxia 1% O2, 72 h, read-out: IC50 (μM) Hypoxia 1% O2): 1.34 µM
IC50 (U373; U373, normoxia, 72 h, read-out: IC50 (μM) Normoxia): 11.6 µM
Selectivity (U373): 8.67

COc1ccc(CNC(=O)c2ccc3nc4c5c(c6ccccc6c4nc3c2)OC(C)(C)[C@H]2CC[C@H](C)C[C@H]52)c(OC)c1 [Compound 16]
IC50 (μM) Hypoxia 1% O2 (PC3; PC3, hypoxia 1% O2, 72 h): u.t.d.
IC50 (μM) Normoxia (PC3; PC3, normoxia, 72 h): u.t.d.
IC50 (LoVo; Homo sapiens, normoxia, 72 h, read-out: IC50 (μM) Normoxia): 210 µM
Selectivity (LoVo): <0.79^b
IC50 (μM) Hypoxia 1% O2 (LoVo; hypoxia 1% O2, 72 h): u.t.d.
IC50 ([1]; Homo sapiens, 72 h, hypoxia 0.1% O2, 72 h, read-out: IC50 (μM) Hypoxia 0.1%): 0.09 µM
IC50 ([1]; Homo sapiens, 72 h, hypoxia 1% O2, 72 h, read-out: IC50 (μM) Hypoxia 1%): 14.4 µM
IC50 ([1]; Homo sapiens, 72 h, normoxia, 72 h, series compared with hypoxia 0.1%, read-out: IC50 (μM) Normoxia): 129 µM
IC50 ([1]; Homo sapiens, 72 h, normoxia, 72 h, series compared with hypoxia 1%, read-out: IC50 (μM) Normoxia): 42.6 µM
Selectivity [1, 4]: 1480
Selectivity [1, 5]: 3
IC50 (siHa; Homo sapiens, hypoxia 1% O2, 72 h, read-out: IC50 (μM) Hypoxia 1% O2): 138 µM
Selectivity (siHa): >1.92^b
IC50 (μM) Normoxia (siHa; normoxia, 72 h): u.t.d.
IC50 (MDA-MB-231; Homo sapiens, MDA-MB-231, hypoxia 1% O2, 72 h, read-out: IC50 (μM) Hypoxia 1% O2): 230 µM
IC50 (μM) Normoxia (MDA-MB-231; MDA-MB-231, normoxia, 72 h): u.t.d.
Selectivity (MDA-MB-231): >1.16^b
IC50 (MCF-7; Homo sapiens, MCF7, MCF-7, hypoxia 1% O2, 72 h, read-out: IC50 (μM) Hypoxia 1% O2): 164 µM
IC50 (μM) Normoxia (MCF-7; MCF-7, normoxia, 72 h): u.t.d.
Selectivity (MCF-7): >1.63^b
IC50 (U373; Homo sapiens, U373 MG, U373, hypoxia 1% O2, 72 h, read-out: IC50 (μM) Hypoxia 1% O2): 234 µM
IC50 (μM) Normoxia (U373; U373, normoxia, 72 h): u.t.d.
Selectivity (U373): >1.14^b
